Earlier results as cited in patent publication US20050238693A1, “Process for the preparation and activation of susbstances and a means of producing same” (priority 2002, published 2005).

System: bone loss
Conditions: 400 mg dose twice a day; women relatively soon after menopause

**Q.** With `[Ca]` [Calcium] as the compound, how does the “bone loss and bone density in spine, femoral neck and radial shaft” value read?
**A.** Its value is “avert bone loss and stabilized bone density”.
